Experimental data as given in ChEMBL document CHEMBL1141361, “Niphatoxin C, a cytotoxic tripyridine alkaloid from Callyspongia sp” (J Nat Prod, 2007).

Tests used:
THP-1 [1] = assay: Increase in hemolysin-induced pore formation in human THP1 cells at 100 uM relative to control; assay type: functional
[2] = target: T1, P2X purinoceptor 7 (Homo sapiens) (UniProt Q99572); assay: Antagonist activity at P2X7 receptor expressed in human THP1 cells assessed as reduction of benzoylbenzoyl adenosine triphosphate-induced pore formation at 10 uM relative to control; assay type: functional, cell-based; set-up: scale not given: the % may be the effect or the level left; settings: THP-1
T1 sequence (whole entry): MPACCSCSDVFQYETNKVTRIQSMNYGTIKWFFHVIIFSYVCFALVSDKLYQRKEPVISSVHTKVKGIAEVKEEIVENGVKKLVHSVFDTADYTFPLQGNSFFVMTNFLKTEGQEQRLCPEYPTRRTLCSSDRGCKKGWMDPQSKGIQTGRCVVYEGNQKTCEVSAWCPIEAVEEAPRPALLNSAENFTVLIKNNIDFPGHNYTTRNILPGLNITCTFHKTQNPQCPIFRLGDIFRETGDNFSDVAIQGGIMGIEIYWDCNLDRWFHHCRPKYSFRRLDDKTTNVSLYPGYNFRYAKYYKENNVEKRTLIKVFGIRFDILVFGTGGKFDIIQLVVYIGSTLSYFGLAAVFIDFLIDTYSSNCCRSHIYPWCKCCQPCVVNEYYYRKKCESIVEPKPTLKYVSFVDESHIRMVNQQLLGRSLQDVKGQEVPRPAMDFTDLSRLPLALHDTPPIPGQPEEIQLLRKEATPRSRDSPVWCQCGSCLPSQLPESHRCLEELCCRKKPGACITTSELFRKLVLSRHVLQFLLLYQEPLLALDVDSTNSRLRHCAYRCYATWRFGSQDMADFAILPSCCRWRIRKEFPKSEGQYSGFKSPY

THP-1 [3] = assay: Cytotoxicity against human THP1 cells at 100 uM; assay type: functional
THP-1 [4] = assay: Increase in hemolysin-induced pore formation in human THP1 cells at 10 uM relative to control; assay type: functional
THP-1 [5] = assay: Cytotoxicity against human THP1 cells after 21 hrs; assay type: functional, cell-based; settings: THP-1, 21 h
THP-1 [6] = assay: Cytotoxicity against human THP1 cells at 30 uM; assay type: functional

`C(=C/CCCC[n+]1cccc(C/C=C\CCCCCCc2cccnc2)c1)/CCCCCCc1cccnc1` [NIPHATOXIN C] was tested. Which Activity (THP-1 [1]) did it give?
Its Activity is 185%.

And the Activity [2]?
The Activity was 41%.

And the Activity (THP-1 [3])?
The Activity was 99%.

What about the Activity (THP-1 [4]) of the same compound?
The Activity was 101%.

What about the IC50 (THP-1 [5]) of the same compound?
The IC50 was 11.5 µM.

And the Activity (THP-1 [6])?
The Activity was 0%.
